For 19 molecules, IC50 and EC50 results are on record in US9901577B2, “Oxoquinazolinyl-butanamide derivatives” (MERCK PATENT GMBH, priority 2013, dated 2018).

One assay concerns the target T1, TNKS2 (Homo sapiens, UniProt Q9H2K2).
T1 construct: GST-tagged Tnks-2 (873-1166 aa, prepared in-house); made in house
Briefly: TNKS2 activity ELISA (autoparsylation assay). It counts as biochemical. As for the experimental part: (§1) Description of the TNKS1 and TNKS2 ELISA Assay
(§2) Biochemical Activity Testing of TNKS 1 and 2: Activity ELISA (Autoparsylation Assay)
(§3) For analysis of autoparsylation activity of TNKS 1 and 2 an activity ELISA iss performed: In the first step GST tagged TNKS is captured on a Glutathione coated plate. Then the activity assay with biotinylated NAD is performed in the absence/presence of the compounds. During the enzymatic reaction GST tagged TNKS transfers biotinylated ADP-ribose to itself from biotinylated NAD as co-substrate. For the detection streptavidin-HRP conjugate is added that binds to the biotinylated TNKS and is thereby captured to the plates. The amount of biotinylated resp. autoparsylated TNKS is detected with a luminescence substrate for HRP. The level of the luminescence signal correlates directly with the amount of autoparsylated TNKS and therefore with activity of TNKS.
(§4) The activity ELISA is performed in 384 well Glutathione coated microtiter plates (Express capture Glutathione coated plate, Biocat, Heidelberg, Germany). The plates are pre-equilibrated with PBS. […] The plates are washed 3 times with PBS-Tween-20. The wells are blocked by incubation at room temperature for 20 minutes with 50 μl blocking buffer (PBS, 0.05% Tween-20, 0.5% BSA). Afterwards the plates are washed 3 times with PBS-Tween-20. […] The reaction is stopped by 3 times washing with PBS-Tween-20. For the detection 50 μl of 20 ng/μl Streptavidin, HRP conjugate (MoBiTec, Göttingen, Germany) in PBS/0.05% Tween-20/0.01% BSA are added and the plates are incubated for 30 minutes at room temperature. After three times washing with PBS-Tween-20 50 μl of SuperSignal ELISA Femto Maximum sensitivity substrate solution (ThermoFisherScientific (Pierce), Bonn, Germany) are added. Following a 1 minute incubation at room temperature luminescence signals are measured with an Envision multimode reader (Perkin Elmer LAS Germany GmbH) at 700 nm. The full value used is the inhibitor-free reaction. […] The inhibitory values (IC50) are determined using either the program Symyx Assay Explorer® or Condosseo® from GeneData.

In the next assay the target is T2, TNKS1 (Homo sapiens, UniProt O95271).
T2 construct: GST-tagged Tnks-1 (1023-1327 aa, prepared in-house); made in house
Briefly: TNKS1 activity ELISA (autoparsylation assay). It is filed as biochemical. As for the experimental part: as §1, §2, §3, §4
On the technique in general: In an ELISA, binding on a coated surface is turned into a signal by an enzyme label.

The target of the next assay is T3, PARP-1 (Homo sapiens, UniProt P09874).
T3 construct: purchased Enzo Life Sciences GmbH, Lörrach, Germany
Briefly: PARP-1 autoparsylation assay (HTRF). To be noted: His-tagged Parp-1, autoparsylation. It counts as biochemical. A general note: Time-resolved FRET reads energy transfer from a long-lived donor to a nearby acceptor.

The next assay deals with T4, Tankyrase.
T4 construct: TNKS cellular assay; other: DLD1 cells, Axin2 increase, 24 hours
Briefly: Measurement of cellular inhibition of Tankyrase (Axin2 level in DLD1 cells, Luminex based assay). It is filed as cell-based. To be noted: read-out: EC50 [M] TNKS cellular assay; DLD1 cells, Axin2 increase, 24 hours. As for the experimental part: Measurement of Cellular Inhibition of Tankyrase
Cells of the colon carcinoma cell line DLD1 are plated in 96 well plates with 1.5×10^4 cells per well. Next day, cells are treated with a serial dilution of test compound in seven steps as triplicates with a final DMSO concentration of 0.3%. […] The amount of isolated Axin2 protein is determined in a Luminex^200 machine (Luminex Corporation) according to the manufacturer's instruction by counting 100 events per well. […] As controls cells are treated with solvent alone (neutral control) and with a Tankyrase reference inhibitor IWR-2 (3E-06 M) which refers as control for maximum increase of Axin2. For analysis, the obtained data are normalized against the untreated solvent control and fitted for determination of the EC50 values using the Assay Explorer software (Accelrys).

Where [1] appears, read: GST-tagged Tnks-2, read-out: IC50 [M] TNKS2 ELISA.
The mark [2] stands for this setting: GST-tagged Tnks-1, read-out: IC50 [M] TNKS1 ELISA.

Each structure is given as a SMILES string. Like-named read-outs stand apart in the source and are kept apart here.

T2 sequence (O95271 1023-1327): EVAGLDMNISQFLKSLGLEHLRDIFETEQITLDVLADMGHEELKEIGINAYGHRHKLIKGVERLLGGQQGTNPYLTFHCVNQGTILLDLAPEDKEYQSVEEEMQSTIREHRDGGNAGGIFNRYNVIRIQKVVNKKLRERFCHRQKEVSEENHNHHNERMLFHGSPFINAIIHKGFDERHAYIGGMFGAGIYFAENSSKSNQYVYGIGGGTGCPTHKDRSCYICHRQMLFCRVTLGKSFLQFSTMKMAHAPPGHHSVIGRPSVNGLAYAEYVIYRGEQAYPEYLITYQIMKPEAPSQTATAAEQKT
T1 sequence (Q9H2K2 873-1166): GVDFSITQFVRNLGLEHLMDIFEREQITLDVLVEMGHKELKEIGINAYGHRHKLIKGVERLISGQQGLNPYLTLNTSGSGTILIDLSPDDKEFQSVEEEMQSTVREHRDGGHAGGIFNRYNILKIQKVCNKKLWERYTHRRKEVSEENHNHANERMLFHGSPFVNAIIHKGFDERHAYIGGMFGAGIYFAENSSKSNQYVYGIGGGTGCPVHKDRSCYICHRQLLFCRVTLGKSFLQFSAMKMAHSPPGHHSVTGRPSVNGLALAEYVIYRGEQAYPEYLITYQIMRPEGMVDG
T3 sequence (P09874 whole entry): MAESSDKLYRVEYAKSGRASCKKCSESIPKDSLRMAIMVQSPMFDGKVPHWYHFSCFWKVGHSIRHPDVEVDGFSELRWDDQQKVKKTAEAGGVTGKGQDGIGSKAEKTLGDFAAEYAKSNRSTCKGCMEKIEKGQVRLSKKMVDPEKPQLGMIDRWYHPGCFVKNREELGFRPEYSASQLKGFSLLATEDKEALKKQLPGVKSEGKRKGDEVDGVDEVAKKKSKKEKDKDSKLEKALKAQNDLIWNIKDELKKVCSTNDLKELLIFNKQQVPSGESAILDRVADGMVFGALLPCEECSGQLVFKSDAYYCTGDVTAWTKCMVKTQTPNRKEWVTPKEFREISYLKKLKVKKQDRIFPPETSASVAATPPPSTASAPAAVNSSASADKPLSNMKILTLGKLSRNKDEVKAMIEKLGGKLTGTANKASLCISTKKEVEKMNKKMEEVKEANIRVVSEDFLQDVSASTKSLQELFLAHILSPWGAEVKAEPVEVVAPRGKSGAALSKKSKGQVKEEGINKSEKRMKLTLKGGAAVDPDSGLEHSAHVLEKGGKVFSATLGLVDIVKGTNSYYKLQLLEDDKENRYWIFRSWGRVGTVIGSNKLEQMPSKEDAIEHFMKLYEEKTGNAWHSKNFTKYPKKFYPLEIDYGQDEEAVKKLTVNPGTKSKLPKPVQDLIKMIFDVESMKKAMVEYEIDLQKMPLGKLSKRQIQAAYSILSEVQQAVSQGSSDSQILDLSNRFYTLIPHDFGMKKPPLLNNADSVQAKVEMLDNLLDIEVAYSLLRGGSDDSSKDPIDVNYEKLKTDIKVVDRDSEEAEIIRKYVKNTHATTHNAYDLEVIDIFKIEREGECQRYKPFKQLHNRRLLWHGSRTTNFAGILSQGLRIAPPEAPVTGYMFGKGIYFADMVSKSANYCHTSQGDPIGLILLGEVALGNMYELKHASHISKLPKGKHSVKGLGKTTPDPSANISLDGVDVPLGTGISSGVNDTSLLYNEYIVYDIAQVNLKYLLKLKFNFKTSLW

On to `COc1ccc(C(=O)C2CCN(C(=O)CCCc3nc4c(F)cccc4c(=O)[nH]3)CC2)cc1` [Compound A25, 8-Fluoro-2-{4-[4-(4-methoxy-benzoyl)-piperidin-1-yl]-4-oxo-butyl}-3H-quinazolin-4-one], for which the values for the half-inhibitory concentration (IC50) at TNKS2 (setting [1]), on TNKS1 (setting [2]) and against PARP-1 were 2e-10 M, 2.8e-10 M and 2100 nM, respectively. Further, the EC50 with Tankyrase was 2.1e-09 M.

Turning to `O=C(c1ccc(F)cc1)C1CCN(C(=O)CCCc2nc3c(F)cccc3c(=O)[nH]2)CC1` [Compound A28, 8-Fluoro-2-{4-[4-(4-fluoro-benzoyl)-piperidin-1-yl]-4-oxo-butyl}-3H-quinazolin-4-one], the results for the IC50 on TNKS2 (setting [1]), at TNKS1 (setting [2]) and against PARP-1 were 6.2e-10 M, 8.7e-10 M and 3300 nM, respectively. Moreover, in the assay with Tankyrase, the EC50 was 4.2e-08 M.

As for `N#Cc1cc(C2CCN(C(=O)CCCc3nc4ccccc4c(=O)[nH]3)CC2)cnc1N` [Compound A36, 6-Amino-1′-[4-(4-oxo-3,4-dihydro-quinazolin-2-yl)-butyryl]-1′,2′,3′,4′,5′,6-hexahydro-[3,4]bipyridinyl-5-carbonitrile], the IC50 against TNKS2 was 1.1e-09 M; on TNKS1, 1.9e-09 M; against PARP-1, 1100 nM. Besides, in the assay with Tankyrase, the EC50 worked out at 2e-08 M.

In the case of `COc1ccc(C(=O)C2CCN(C(=O)CCCc3nc4ccc(F)cc4c(=O)[nH]3)CC2)cc1` [Compound A19, 6-Fluoro-2-{4-[4-(4-methoxy-benzoyl)-piperidin-1-yl]-4-oxo-butyl}-3H-quinazolin-4-one], the IC50 turned out to be 3.2e-10 M on TNKS2 (setting [1]), 3.1e-10 M on TNKS1 (setting [2]) and 710 nM at PARP-1. Moreover, in the assay with Tankyrase, the EC50 stood at 8.3e-10 M.

For the molecule `Cc1cc(F)cc2c(=O)[nH]c(CCCC(=O)N3CCC(C(=O)c4ccccc4)CC3)nc12` [Compound A3, 2-[4-(4-benzoyl-piperidin-1-yl)-4-oxo-butyl]-6-fluoro-8-methyl-3H-quinazolin-4-one], the IC50 on TNKS2 (setting [1]) stood at 1.3e-10 M; at TNKS1 (setting [2]) it was 2.2e-10 M; against PARP-1, 29 nM. Besides, the EC50 with Tankyrase was 3.4e-09 M.

For `COc1ccc(C(=O)C2CCN(C(=O)CCCc3nc4ccc(F)cc4c(=O)[nH]3)CC2)cn1` [Compound A21, 6-Fluoro-2-{4-[4-(6-methoxy-pyridine-3-carbonyl)-piperidin-1-yl]-4-oxo-butyl}-3H-quinazolin-4-one], the IC50 at TNKS2 (setting [1]) came out at 6.8e-10 M; on TNKS1 (setting [2]) it was 7.5e-10 M; at PARP-1, 550 nM. Besides, in the assay with Tankyrase, the EC50 is 7.8e-09 M.

On to `COc1ccc(C(=O)C2CCN(C(=O)CCCc3nc4ccc(F)cc4c(=O)[nH]3)CC2)cc1F` [Compound A20, 6-Fluoro-2-{4-[4-(3-fluoro-4-methoxy-benzoyl)-piperidin-1-yl]-4-oxo-butyl}-3H-quinazolin-4-one], for which the IC50 was 2.5e-10 M at TNKS2 (setting [1]), 2.5e-10 M at TNKS1 (setting [2]) and 960 nM on PARP-1. Besides, the EC50 in the assay with Tankyrase is 3.4e-09 M.

For `COc1ccc(C(=O)C2CCN(C(=O)CCCc3nc4c(F)cc(F)cc4c(=O)[nH]3)CC2)cc1` [Compound A5, 6,8-difluoro-2-{4-[4-(4-methoxy-benzoyl)-piperidin-1-yl]-4-oxo-butyl}-3H-quinazolin-4-one], the IC50 is 1.6e-10 M at TNKS2 (setting [1]), 8.7e-11 M at TNKS1 (setting [2]) and 780 nM against PARP-1. Besides, the EC50 in the assay with Tankyrase came to 2.6e-09 M.

`COc1ccc(C(=O)C2CCN(C(=O)CCCc3nc4c(F)cccc4c(=O)[nH]3)CC2)cc1C` [Compound A29, 8-Fluoro-2-{4-[4-(4-methoxy-3-methyl-benzoyl)-piperidin-1-yl]-4-oxo-butyl}-3H-quinazolin-4-one]: the IC50 at TNKS2 (setting [1]) is less than 1e-10 M; on TNKS1 (setting [2]), 1.2e-10 M; at PARP-1, 2600 nM. Besides, the concentration giving a half-maximal response (EC50) with Tankyrase was 6.2e-10 M.

On to `COc1ccc(C(=O)C2CCN(C(=O)CCCc3nc4ccc(F)cc4c(=O)[nH]3)CC2)cc1C` [Compound A24, 6-Fluoro-2-{4-[4-(4-methoxy-3-methyl-benzoyl)-piperidin-1-yl]-4-oxo-butyl}-3H-quinazolin-4-one], for which the figures for the concentration for half-maximal inhibition (IC50) at TNKS2 (setting [1]), at TNKS1 (setting [2]) and against PARP-1 were 1.4e-10 M, 1.6e-10 M and 1000 nM, respectively. The EC50 in the assay on Tankyrase amounted to 1e-09 M.

`N#Cc1cc(C2CCN(C(=O)CCCc3nc4ccc(F)cc4c(=O)[nH]3)CC2)cnc1N` [Compound A31, 6-Amino-1′-[4-(6-fluoro-4-oxo-3,4-dihydro-quinazolin-2-yl)-butyryl]-1′,2′,3′,4′,5′,6′-hexahydro-[3,4]bipyridinyl-5-carbonitrile]: the IC50 at TNKS2 (setting [1]) was 9.5e-10 M; on TNKS1 (setting [2]), 2.1e-09 M; against PARP-1, 1400 nM. Further, the EC50 in the assay on Tankyrase worked out at 2.9e-09 M.

Consider `COc1ccc(C(=O)C2CCN(C(=O)CCCc3nc4ccccc4c(=O)[nH]3)CC2)cc1` [Compound A1, 2-{4-[4-(4-methoxy-benzoyl)-piperidin-1-yl]-4-oxo-butyl}-3H-quinazolin-4-one], for which the IC50 on TNKS2 was found to be 1.1e-10 M; against TNKS1, 2.3e-10 M; at PARP-1, 1400 nM. Moreover, the EC50 in the assay with Tankyrase was 1.6e-09 M.

On to `Cc1cccc(C(=O)C2CCN(C(=O)CCCc3nc4ccccc4c(=O)[nH]3)CC2)c1` [Compound A7, 2-{4-[4-(3-methyl-benzoyl)-piperidin-1-yl]-4-oxo-butyl}-3H-quinazolin-4-one], for which the values for the IC50 against TNKS2, on TNKS1 and at PARP-1 were 1.9e-10 M, 2.2e-10 M and 810 nM, respectively. Further, the EC50 with Tankyrase came to 2e-08 M.

For the molecule `N#Cc1cc(C2CCN(C(=O)CCCc3nc4c(F)cccc4c(=O)[nH]3)CC2)cnc1N` [Compound A34, 6-Amino-1′-[4-(8-fluoro-4-oxo-3,4-dihydro-quinazolin-2-yl)-butyryl]-1′,2′,3′,4′,5′,6′-hexahydro-[3,4]bipyridinyl-5-carbonitrile], the IC50 at TNKS2 (setting [1]) came to 1.6e-09 M; at TNKS1 (setting [2]) it was 3.3e-09 M; against PARP-1, 2700 nM. Further, the EC50 with Tankyrase was determined as 3.4e-08 M.

Regarding `COc1cccc(C(=O)C2CCN(C(=O)CCCc3nc4ccccc4c(=O)[nH]3)CC2)c1` [Compound A9, 2-{4-[4-(3-methoxy-benzoyl)-piperidin-1-yl]-4-oxo-butyl}-3H-quinazolin-4-one], the IC50 was 3.3e-10 M on TNKS2 (setting [1]), 1.9e-10 M at TNKS1 (setting [2]) and 740 nM against PARP-1. For the same molecule, the EC50 with Tankyrase turned out to be 1.9e-08 M.

For the molecule `N#Cc1ccc(OC2CCN(C(=O)CCCc3nc4ccc(F)cc4c(=O)[nH]3)CC2)cc1` [Compound A22, 4-{1-[4-(6-Fluoro-4-oxo-3,4-dihydro-quinazolin-2-yl)-butyryl]-piperidin-4-yloxy}-benzonitrile], the figures for the IC50 at TNKS2 (setting [1]), at TNKS1 (setting [2]) and at PARP-1 were 7.6e-08 M, 1.3e-07 M and 640 nM, respectively. Moreover, in the assay with Tankyrase, the EC50 is 5.6e-07 M.

For `N#Cc1ccc(OC2CCN(C(=O)CCCc3nc4ccccc4c(=O)[nH]3)CC2)cc1` [Compound A17, 4-{1-[4-(4-Oxo-3,4-dihydro-quinazolin-2-yl)-butyryl]-piperidin-4-yloxy}-benzonitrile], the values for the IC50 against TNKS2, against TNKS1 and against PARP-1 were 7.9e-08 M, 1.5e-07 M and 680 nM, respectively. Further, the EC50 in the assay with Tankyrase was 7.2e-07 M.

Take `COc1ccc(C(=O)C2CCN(C(=O)CCCc3nc4c(F)cccc4c(=O)[nH]3)CC2)cc1F` [Compound A26, 8-Fluoro-2-{4-[4-(3-fluoro-4-methoxy-benzoyl)-piperidin-1-yl]-4-oxo-butyl}-3H-quinazolin-4-one]: the IC50 at TNKS2 (setting [1]) is 2e-10 M; on TNKS1 (setting [2]), 3e-10 M; on PARP-1 it was 1300 nM. In the assay with Tankyrase, the EC50 came out at 1.3e-09 M.

Turning to `O=C(c1ccccc1)C1CCN(C(=O)CCCc2nc3ccccc3c(=O)[nH]2)CC1` [Compound A2, 2-[4-(4-benzoyl-piperidin-1-yl)-4-oxo-butyl]-3H-quinazolin-4-one], the figures for the concentration for half-maximal inhibition (IC50) at TNKS2 (setting [1]), at TNKS1 (setting [2]) and against PARP-1 were 5.5e-10 M, 7.3e-10 M and 730 nM, respectively. The EC50 in the assay with Tankyrase turned out to be 6.5e-08 M.

The IC50 is the concentration that inhibits the measured activity by half. Usually EC50 stands for the midpoint of the concentration-response curve.
